According to patent US11780901B2, “Analogues of parathyroid hormone (1-34) that function as agonists of the parathyroid hormone receptor-1 and display modified activity profiles” (Wisconsin Alumni Research Foundation, priority 2013, dated 2023):
Read-outs that look alike come from different tables or passages of the source. One block for each molecule: values may come before it. Starred links: 1 amine or outer side, 2 acyl side, 3 side chain; linkers in the order of their positions; H or OH if unused. Non-standard residues stand in square brackets, D forms with d. Residues, ends and D or L forms follow the SMILES beside them. X2 = CCCC[C@@H](CN[*:1])C(=O)[*:2]; X1 = CCCC[C@H](CN[*:1])C(=O)[*:2]

Key:
PTHR1 [1] = molecular target: T1, PTHR1 (Homo sapiens, UniProt Q03431); test: PTHR1 activation, cAMP production (GloSensor) in HEK293 cells; assay type: cell-based; design: expressed in transfected cells; details: for PTHR1 Activation: Derivative EC50/PTH EC50: normalized to EC50 of PTH(1-34)-NH2 ([…]), cAMP production
T1 sequence (Q03431 27-593): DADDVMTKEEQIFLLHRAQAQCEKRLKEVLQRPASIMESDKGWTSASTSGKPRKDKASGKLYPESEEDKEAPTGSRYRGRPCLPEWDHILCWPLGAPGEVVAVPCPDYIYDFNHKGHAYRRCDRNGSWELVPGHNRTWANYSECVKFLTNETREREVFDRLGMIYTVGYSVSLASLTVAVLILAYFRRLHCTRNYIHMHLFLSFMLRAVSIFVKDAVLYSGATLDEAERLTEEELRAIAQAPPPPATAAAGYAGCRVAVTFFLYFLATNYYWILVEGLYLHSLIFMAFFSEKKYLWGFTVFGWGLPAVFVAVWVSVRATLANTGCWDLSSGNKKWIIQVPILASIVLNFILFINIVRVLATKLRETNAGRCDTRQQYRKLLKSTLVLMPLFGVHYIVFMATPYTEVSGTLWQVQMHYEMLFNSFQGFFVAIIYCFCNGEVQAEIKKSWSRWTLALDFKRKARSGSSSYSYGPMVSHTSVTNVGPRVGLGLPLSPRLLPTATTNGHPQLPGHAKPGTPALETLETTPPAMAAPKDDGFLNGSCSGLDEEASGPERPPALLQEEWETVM

PTHR2 [2] = molecular target: T2, PTHR2 (Homo sapiens, UniProt P49190); test: PTHR2 activation, cAMP production (GloSensor) in HEK293 cells; assay type: cell-based; design: expressed in transfected cells; key to PTHR2 Activation: Derivative EC50/PTH EC50: *** denotes poor tolerance of β amino acid for PTHR2 activation; details: for PTHR2 Activation: Derivative EC50/PTH EC50: normalized to EC50 of PTH(1-34)-NH2 ([…] printed), cAMP production
T2 sequence (P49190 25-550): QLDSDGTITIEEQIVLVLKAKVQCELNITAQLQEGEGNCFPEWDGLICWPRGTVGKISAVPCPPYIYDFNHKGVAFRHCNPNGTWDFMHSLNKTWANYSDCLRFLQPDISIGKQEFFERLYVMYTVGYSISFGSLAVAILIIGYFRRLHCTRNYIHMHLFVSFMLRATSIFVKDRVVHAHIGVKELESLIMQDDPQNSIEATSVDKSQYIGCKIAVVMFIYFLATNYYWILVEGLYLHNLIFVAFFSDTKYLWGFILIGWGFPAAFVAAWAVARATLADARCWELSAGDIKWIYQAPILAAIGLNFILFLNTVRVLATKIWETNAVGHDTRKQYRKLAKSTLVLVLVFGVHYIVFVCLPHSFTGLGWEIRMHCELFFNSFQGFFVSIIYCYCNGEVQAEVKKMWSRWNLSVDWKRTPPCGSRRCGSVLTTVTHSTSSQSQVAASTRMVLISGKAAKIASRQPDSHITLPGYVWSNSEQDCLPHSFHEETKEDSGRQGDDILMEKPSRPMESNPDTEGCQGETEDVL
Outline: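 HEK293 cells stably expressing PTHR2; receptor activation read as cAMP production by GloSensor luminescence. Dose-response curves fit with a four-parameter sigmoidal equation; data are mean±s.e.m. of four independent measurements.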

PTHR1 [3] = molecular target: T1, PTHR1; test: Wash-out assay, duration of PTHR1 activation; assay type: cell-based; design: expressed in transfected cells; host or cells: cells stably expressing PTHR1
Source text: (§1) Duration of activation for PTHR1 and PTHR2. To assess the duration of PTHR1 and PTHR2 activation induced by α/β-peptides 14 and 15, the time course of cAMP production by each receptor was examined after stimulation with an agonist and subsequent washing of the cells to remove unbound peptide (wash-out assay). […] During the initial “ligand-on” phase, cells stably expressing PTHR1 or PTHR2 were stimulated with an agonist concentration corresponding to ˜EC80; the medium contained D-luciferin. […] After the addition of fresh medium containing D-luciferin, the luminescence decay is measured. The area under the “ligand-off” curve (AUC) reflects the duration of signaling, which may be related to residence time of the agonist on the receptor but could have other origins at the molecular level.

PTHR2 [4] = molecular target: T2, PTHR2; test: Wash-out assay, duration of PTHR2 activation; assay type: cell-based; design: expressed in transfected cells; host or cells: cells stably expressing PTHR2
Source text: as §1

PTHR1 and PTHR2 = test: Tolerance pattern of β residues for PTHR1 and PTHR2 activation; assay type: cell-based; design: key: “*” denotes potent PTHR1-selective agonism; “#” denotes potent PTHR2-selective agonism; “*#” denotes potent agonism of both PTHR1 and PTHR2; details: PTHR1 vs PTHR2 agonism
Source text: Enhanced selectivity via double α→β replacement.

PTHR1 [5] = test: β-arr2 | pEC50
PTHR1 [6] = test: β-arr1 | pEC50
PTHR1 [7] = test: cAMP | pEC50
Source text: Table printed on a drawing sheet, FIG. 2
(§2) Head of the field: cAMP | pEC50
First copying reader's note: The error (±) stands inside the result cells.

PTHR1 [8] = test: β-arr2 | pEC50; remark: listed apart in the source
PTHR1 [9] = test: β-arr1 | pEC50; remark: listed apart in the source
PTHR1 [10] = test: cAMP | pEC50; remark: listed apart in the source
Source text: Table printed on a drawing sheet, FIG. 5
as §2
The patent's description of the figure: FIG. 5 depicts graphs and a corresponding table reporting the EC50 and Emax of PTHR1 agonists Ligands 8-13 (SEQ. ID. NOS: 8-13) for cAMP signaling and β-arrestin (βarr) recruitment.
First copying reader's note: Each value cell carries its own ± error; the rows for Ligand 8, 10 and 12 are printed on dark shading.
Where the first naming reader finds the target: description_of_the_figure: EC50 and Emax of PTHR1 agonists Ligands 8-13 (SEQ. ID. NOS: 8-13) for cAMP signaling and β-arrestin (βarr) recruitment.

[11] = HEK-293 cells, GloSensor cAMP, read-out: EC50 (nM) of PTHR2 Activation
[12] = read-out: Normalized ligand-on Emax
[13] = HEK-293 cells, GloSensor cAMP, read-out: EC50 (nM) of PTHR1 Activation

Molecule: CC[C@H](C)[C@H](NC(=O)[C@H](CCC(=O)O)NC(=O)[C@H](CO)NC(=O)[C@@H](NC(=O)[C@@H](N)CO)C(C)C)C(=O)N[C@@H](CCC(N)=O)C(=O)N[C@@H](CC(C)C)C(=O)N[C@@H](CCSC)C(=O)N[C@@H](Cc1c[nH]cn1)C(=O)N[C@@H](CC(N)=O)C(=O)N[C@@H](CC(C)C)C(=O)NCC(=O)N[C@@H](CCCCN)C(=O)N[C@@H](Cc1c[nH]cn1)C(=O)N[C@@H](CC(C)C)C(=O)N[C@@H](CC(N)=O)C(=O)N[C@@H](CO)C(=O)N[C@@H](CCSC)C(=O)N[C@@H](CCC(=O)O)C(=O)N[C@@H](CCCNC(=N)N)C(=O)N[C@H](C(=O)N[C@@H](CCC(=O)O)C(=O)N[C@@H](Cc1c[nH]c2ccccc12)C(=O)N[C@@H](CC(C)C)C(=O)N[C@@H](CCCNC(=N)N)C(=O)N[C@@H](CCCCN)C(=O)N[C@@H](CCCCN)C(=O)N[C@@H](CC(C)C)C(=O)N[C@@H](CCC(N)=O)C(=O)N[C@@H](CC(=O)O)C(=O)N[C@H](C(=O)N[C@@H](Cc1c[nH]cn1)C(=O)N[C@@H](CC(N)=O)C(=O)N[C@@H](Cc1ccccc1)C(N)=O)C(C)C)C(C)C [PTH(1-34)-NH2, reference compound]
Emax (PTHR1 [1]; HEK293): 100%
Emax (PTHR2 [2]; HEK293): 100%
EC50 (PTHR2 [2]; [11]): 0.97 nM
EC50 (PTHR2 [2]; Table 5, HEK293 cells stably expressing PTHR2, read-out: PTHR2 EC50): 1.07 ± 0.14 nM
Normalized ligand-off AUC (PTHR1 [3]; PTHR1, after washout, PTH(1-34)-NH2 = 100): 100
Emax (PTHR1 [3]; [12]): 100%
Normalized ligand-off AUC (PTHR2 [4]; PTHR2, after washout, PTH(1-34)-NH2 = 100): 100
Emax (PTHR2 [4]; [12]): 100%

EC50 (PTHR1 [1]; [13]): 0.4 ± 0.07 nM
PTHR1 Activation: Derivative EC50/PTH EC50 (PTHR1 [1]): 1.05
Molecule: CCCC[C@H](CNC(=O)[C@H](CC(C)C)NC(=O)[C@H](CCC(N)=O)NC(=O)[C@@H](NC(=O)[C@H](CCC(=O)O)NC(=O)[C@H](CO)NC(=O)[C@@H](NC(=O)[C@@H](N)CO)C(C)C)[C@@H](C)CC)C(=O)N[C@@H](Cc1c[nH]cn1)C(=O)N[C@@H](CC(N)=O)C(=O)N[C@@H](CC(C)C)C(=O)NCC(=O)N[C@@H](CCCCN)C(=O)N[C@@H](Cc1c[nH]cn1)C(=O)N[C@@H](CC(C)C)C(=O)N[C@@H](CC(N)=O)C(=O)N[C@@H](CO)C(=O)N[C@@H](CCSC)C(=O)N[C@@H](CCC(=O)O)C(=O)N[C@@H](CCCNC(=N)N)C(=O)N[C@H](C(=O)N[C@@H](CCC(=O)O)C(=O)N[C@@H](Cc1c[nH]c2ccccc12)C(=O)N[C@@H](CC(C)C)C(=O)N[C@@H](CCCNC(=N)N)C(=O)N[C@@H](CCCCN)C(=O)N[C@@H](CCCCN)C(=O)N[C@@H](CC(C)C)C(=O)N[C@@H](CCC(N)=O)C(=O)N[C@@H](CC(=O)O)C(=O)N[C@H](C(=O)N[C@@H](Cc1c[nH]cn1)C(=O)N[C@@H](CC(N)=O)C(=O)N[C@@H](Cc1ccccc1)C(N)=O)C(C)C)C(C)C [SEQ. ID. NO: 29] (H-SVSEIQL[X1]HNLGKHLNSMERVEWLRKKLQDVHNF-NH2; N-terminus assumed)
Tolerance Pattern of β AA (PTHR1 and PTHR2): *
EC50 (PTHR2 [2]; [11]): > 1000 nM
PTHR2 Activation: Derivative EC50/PTH EC50 (PTHR2 [2]): ***

EC50 (PTHR1 [1]; [13]): 0.38 ± 0.07 nM
EC50 (PTHR1 [1]; Table 8, hPTHR1, read-out: PTHR1 EC50): 10.3 ± 1.65 nM
PTHR1 Activation: Derivative EC50/PTH EC50 (PTHR1 [1]): 1.00
Molecule: CCCC[C@@H](CNC(=O)[C@H](CC(C)C)NC(=O)[C@H](CCC(N)=O)NC(=O)[C@@H](NC(=O)[C@H](CCC(=O)O)NC(=O)[C@H](CO)NC(=O)[C@@H](NC(=O)[C@@H](N)CO)C(C)C)[C@@H](C)CC)C(=O)N[C@@H](Cc1c[nH]cn1)C(=O)N[C@@H](CC(N)=O)C(=O)N[C@@H](CC(C)C)C(=O)NCC(=O)N[C@@H](CCCCN)C(=O)N[C@@H](Cc1c[nH]cn1)C(=O)N[C@@H](CC(C)C)C(=O)N[C@@H](CC(N)=O)C(=O)N[C@@H](CO)C(=O)N[C@@H](CCSC)C(=O)N[C@@H](CCC(=O)O)C(=O)N[C@@H](CCCNC(=N)N)C(=O)N[C@H](C(=O)N[C@@H](CCC(=O)O)C(=O)N[C@@H](Cc1c[nH]c2ccccc12)C(=O)N[C@@H](CC(C)C)C(=O)N[C@@H](CCCNC(=N)N)C(=O)N[C@@H](CCCCN)C(=O)N[C@@H](CCCCN)C(=O)N[C@@H](CC(C)C)C(=O)N[C@@H](CCC(N)=O)C(=O)N[C@@H](CC(=O)O)C(=O)N[C@H](C(=O)N[C@@H](Cc1c[nH]cn1)C(=O)N[C@@H](CC(N)=O)C(=O)N[C@@H](Cc1ccccc1)C(N)=O)C(C)C)C(C)C [SEQ. ID. NO: 37] (H-SVSEIQL[X2]HNLGKHLNSMERVEWLRKKLQDVHNF-NH2; N-terminus assumed)
Tolerance Pattern of β AA (PTHR1 and PTHR2): *
EC50 (PTHR2 [2]; [11]): 10.3 ± 1.65 nM
PTHR2 Activation: Derivative EC50/PTH EC50 (PTHR2 [2]): 11.85

Molecule: BA058: also known as abaloparatide
β-arr2 | pEC50 (PTHR1 [5]): 8.52 ± 0.06
β-arr1 | pEC50 (PTHR1 [6]): 8.38 ± 0.12
cAMP | pEC50 (PTHR1 [7]): 10.05 ± 0.05

β-arr2 | pEC50 (PTHR1 [5]): 8.20 ± 0.06
β-arr1 | pEC50 (PTHR1 [6]): 8.16 ± 0.06
cAMP | pEC50 (PTHR1 [7]): 9.06 ± 0.06
Molecule: LA-PTH: long-acting PTH analog (AVAEIQLMHQRAKWIQDARRRAFLHKLIAEIHTAEI; Long-acting (LA)-PTH, a parathyroid hormone analog)

β-arr2 | pEC50 (PTHR1 [8]): 8.16 ± 0.09
β-arr1 | pEC50 (PTHR1 [9]): 8.03 ± 0.10
cAMP | pEC50 (PTHR1 [10]): 9.44 ± 0.08
Molecule: Ligand 13: PTH(1-34) analogue with replaced residue at position 8 (character image) (SVSEIQLXHNLGKHLNSMERVEWLRKKLQDVHNF; non-natural residue at position 8; MOD_RES (8)..(8) X at position 8 is (S*)-Beta-2-Norleucine)

β-arr2 | pEC50 (PTHR1 [8]): 8.28 ± 0.02
β-arr1 | pEC50 (PTHR1 [9]): 8.33 ± 0.05
cAMP | pEC50 (PTHR1 [10]): 9.03 ± 0.10
Molecule: SVSEIQL^nLHNLGKHLNSMERVEWLRKKLQDVHNF (SVSEIQLXHNLGKHLNSMERVEWLRKKLQDVHNF; (R)-beta2-Nle at position 8; MOD_RES (8)..(8) X at position 8 is (R)-Beta-2-Norleucine.) [Ligand 11]
